The record followed here is US11028090B2 (Dong Wha Pharm. Co., Ltd., priority 2017, dated 2021).

Read-outs that look alike come from different tables or passages of the source.

Experiment [1] deals with acute myelogenous leukemia cells (MV-4-11 cells). As to the kind of experiment: Cytotoxicity to acute myelogenous leukemia cells (MV-4-11 cells), CCK-8. The conditions noted are these: Homo sapiens, MV4-11, 72 h.
Experiment [2] addresses BRD4 (BD1+BD2) bromodomain (Homo sapiens (Human), UniProt O60885). As to the kind of experiment: BRD4 binding inhibition (AlphaScreen, GST-BRD4 vs tetraacetylated histone H4 peptide). In short, it runs like this: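 GST-BRD4 (BD1+BD2) and biotinylated tetraacetyl-histone H4 peptide, each at 100 nM in HEPES pH 7.4 buffer with BSA and DTT, were combined with compound. Glutathione acceptor and streptavidin donor beads were added, then incubated 30 min at room temperature in the dark. Read-out was AlphaScreen signal.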

Setting [3] is: read-out: MV-4-11 Cytotoxicity IC50.
Where [4] appears, read: GST-BRD4 (BD1+BD2) / biotinylated acetyl-histone H4 (Lys5,8,12,16) peptide, read-out: IC50, BRD4 binding inhibition.
Where [5] appears, read: GST-BRD4 (BD1+BD2) vs biotinylated acetyl-histone H4 peptide, AlphaScreen, read-out: BRD4 IC50.
The mark [6] stands for this setting: read-out: IC50, cytotoxicity against acute myelogenous leukemia cells.

With `Cc1nnc2c(NCCCCNC(=O)[C@@H](NC(=O)[C@@H](F)C(C)C)C(C)C)nc3cc(N4C[C@@H](C)O[C@@H](C)C4)ccc3n12` [Example 517], the IC50 in experiment [1] (setting [3]) is 236 nM; in experiment [2] (setting [4]) it was at most 50 nM; in experiment [2] (setting [5]), 38 nM.
On the same counts, the results for `Cc1nnc2c(NCCCCNC(=O)[C@@H](NC(=O)C(C)(C)C)C(C)C)nc3cc(N4C[C@@H](C)O[C@@H](C)C4)ccc3n12` [Example 519] are 400 nM, at most 50 nM and 49 nM.
Consider `Cc1nnc2c(NCCCCNC(=O)[C@@H](NC(=O)OC(C)C)C(C)C)nc3cc(N4C[C@@H](C)O[C@@H](C)C4)ccc3n12` [Example 520, (S)-(1-{4-[7-(2,6-dimethyl-morpholine-4-yl)-1-methyl-[1,2,4]triazolo[4,3-a]quinoxaline-4-ylamino]-butylcarbamoyl}-2-methyl-propyl)-carbamic acid isopropylester], for which the IC50 is at most 200 nM in experiment [1] (setting [6]), 174 nM in experiment [1] (setting [3]), at most 50 nM in experiment [2] (setting [4]) and 24 nM in experiment [2] (setting [5]).
As for `Cc1nnc2c(NCCCCNC(=O)CC(C)C)nc3cc(N4CCc5sccc5C4)ccc3n12` [Example 528, N-{4-[7-(6,7-dihydro-4H-thiano[3,2-c]pyridine-5-yl)-1-methyl-[1,2,4]triazolo[4,3-a]quinoxaline-4-ylamino]-butyl}-3-methyl-butyramide], the IC50 in experiment [1] (setting [3]) is 203 nM; in experiment [2] (setting [4]), at most 50 nM; in experiment [2] (setting [5]), 15 nM.
Turning to `Cc1nnc2c(NCCCCNC(=O)[C@@H](F)C(C)C)nc3cc(N4CCc5sccc5C4)ccc3n12` [Example 529, N-{4-[7-(6,7-dihydro-4H-thiano[3,2-c]pyridine-5-yl)-1-methyl-[1,2,4]triazolo[4,3-a]quinoxaline-4-ylamino]-butyl}-2-(S)-fluoro-3-methyl-butyramide], the IC50 was at most 200 nM in experiment [1] (setting [6]), 107 nM in experiment [1] (setting [3]), at most 50 nM in experiment [2] (setting [4]) and 31 nM in experiment [2] (setting [5]).
On the same counts, the results for `Cc1nnc2c(NCCCCNC(=O)CC(C)C)nc3ccc([N+](=O)[O-])cc3n12` [Example 550, 3-methyl-N-[4-(1-methyl-8-nitro-[1,2,4]triazolo[4,3-a]quinoxaline-4-ylamino)-butyl]-butyramide] are at most 200 nM, 157 nM, at most 50 nM and 21 nM.
On to `Cc1nnc2c(NCCCCNC(=O)CC(C)C)nc3ccc(N)cc3n12` [Example 551, N-[4-(8-amino-1-methyl-[1,2,4]triazolo[4,3-a]quinoxaline-4-ylamino)-butyl]-3-methyl-butyramide], for which the concentration for half-maximal inhibition (IC50) was at most 200 nM in experiment [1] (setting [6]), 135 nM in experiment [1] (setting [3]), at most 50 nM in experiment [2] (setting [4]) and 12 nM in experiment [2] (setting [5]).
On the same counts, the results for `CCCNc1ccc2nc(NCCCCNC(=O)CC(C)C)c3nnc(C)n3c2c1` [Example 552, 3-methyl-N-[4-(1-methyl-8-propylamino-[1,2,4]triazolo[4,3-a]quinoxaline-4-ylamino)-butyl]-butyramide] are at most 200 nM, 157 nM, at most 50 nM and 21 nM.
For `Cc1nnc2c(NCCCCNC(=O)CC(C)C)nc3ccc(NCCCC#N)cc3n12` [Example 553, N-{4-[8-(3-cyano-propylamino)-1-methyl-[1,2,4]triazolo[4,3-a]quinoxaline-4-ylamino]-butyl}-3-methyl-butyramide], in that order: at most 200 nM, 174 nM, at most 50 nM and 24 nM.
With `COc1cc2nc(NCCCCNC(=O)CC(C)C)c3nnc(C)n3c2cc1[N+](=O)[O-]` [Example 555, N-[4-(7-methoxy-1-methyl-8-nitro-[1,2,4]triazolo[4,3-a]quinoxaline-4-ylamino)-butyl]-3-methyl-butyramide], the values for the half-maximal inhibitory concentration (IC50) in experiment [1] (setting [6]), in experiment [1] (setting [3]) and in experiment [2] (setting [5]) were at most 200 nM, 118 nM and 65 nM, respectively.
For the molecule `COc1cc2nc(NCCCCNC(=O)CC(C)C)c3nnc(C)n3c2cc1N` [Example 556, N-[4-(8-amino-7-methoxy-1-methyl-[1,2,4]triazolo[4,3-a]quinoxaline-4-ylamino)-butyl]-3-methyl-butyramide], the IC50 in experiment [1] (setting [6]) is at most 200 nM; in experiment [1] (setting [3]) it was 1 nM; in experiment [2] (setting [4]), at most 50 nM; in experiment [2] (setting [5]), 31 nM.
`CNc1cc2c(cc1OC)nc(NCCCCNC(=O)CC(C)C)c1nnc(C)n12` [Example 557, N-[4-(7-methoxy-1-methyl-8-methylamino-[1,2,4]triazolo[4,3-a]quinoxaline-4-ylamino)-butyl]-3-methyl-butyramide]: the half-inhibitory concentration (IC50) in experiment [1] (setting [3]) was 280 nM; in experiment [2] (setting [4]), at most 50 nM; in experiment [2] (setting [5]) it was 13 nM.
As to `COc1cc2nc(NCCCCNC(=O)CC(C)C)c3nnc(C)n3c2cc1NO` [Example 558, N-[4-(8-hydroxyamino-7-methoxy-1-methyl-[1,2,4]triazolo[4,3-a]quinoxaline-4-ylamino)-butyl]-3-methyl-butyramide], the values for the IC50 in experiment [1] (setting [6]), in experiment [1] (setting [3]) and in experiment [2] (setting [5]) were at most 200 nM, 87 nM and 57 nM, respectively.
Consider `CCCNc1cc2c(cc1OC)nc(NCCCCNC(=O)CC(C)C)c1nnc(C)n12` [Example 559, N-[4-(7-methoxy-1-methyl-8-propylamino-[1,2,4]triazolo[4,3-a]quinoxaline-4-ylamino)-butyl]-3-methyl-butyramide], for which the IC50 in experiment [1] (setting [6]) was at most 200 nM; in experiment [1] (setting [3]), 141 nM; in experiment [2] (setting [4]) it was at most 10 nM; in experiment [2] (setting [5]), 7 nM.
On the same counts, the results for `C#CCNc1cc2c(cc1OC)nc(NCCCCNC(=O)CC(C)C)c1nnc(C)n12` [Example 560] are at most 200 nM, 71 nM, at most 50 nM and 37 nM.
In the case of `COc1cc2nc(NCCCCNC(=O)CC(C)C)c3nnc(C)n3c2cc1NC(=O)CC(C)C` [Example 562, N-{4-[7-methoxy-1-methyl-8-(3-methyl-butyrylamino)-[1,2,4]triazolo[4,3-a]quinoxaline-4-ylamino]-butyl}-3-methyl-butyramide], the half-maximal inhibitory concentration (IC50) in experiment [1] (setting [3]) is 375 nM; in experiment [2] (setting [4]) it was at most 50 nM; in experiment [2] (setting [5]), 32 nM.
`COc1cc2nc(NCCCCNC(=O)CC(C)C)c3nnc(C)n3c2cc1NC(=O)CC(C)(C)C` [Example 563]: the IC50 in experiment [1] (setting [3]) was 559 nM; in experiment [2] (setting [4]), at most 50 nM.
Turning to `COc1cc2nc(NCCCCNC(=O)CC(C)C)c3nnc(C)n3c2cc1NC(=O)Cc1ccccc1` [Example 564], the 50% inhibitory concentration (IC50) in experiment [1] (setting [3]) was 610 nM; in experiment [2] (setting [4]), at most 10 nM; in experiment [2] (setting [5]) it was 9 nM.
Take `COc1cc2nc(NCCCCNC(=O)CC(C)C)c3nnc(C)n3c2cc1NS(=O)(=O)CC(C)C` [Example 567]: the IC50 in experiment [1] (setting [6]) was at most 200 nM; in experiment [1] (setting [3]), 200 nM; in experiment [2] (setting [4]), at most 50 nM; in experiment [2] (setting [5]), 13 nM.
In the case of `COc1cc2nc(NCCCCNC(=O)CC(C)C)c3nnc(C)n3c2cc1NC(=O)Nc1ccccc1` [Example 568, N-{4-[7-methoxy-1-methyl-8-(3-phenyl-ureido)-[1,2,4]triazolo[4,3-a]quinoxaline-4-ylamino]-butyl}-3-methyl-butyramide], the IC50 was 658 nM in experiment [1] (setting [3]), at most 50 nM in experiment [2] (setting [4]) and 28 nM in experiment [2] (setting [5]).
For `COc1cc2nc(NCCCCNC(=O)CC(C)C)c3nnc(C)n3c2cc1NC(=S)NC(C)C` [Example 569, N-{4-[8-(3-isopropyl-thioureido)-7-methoxy-1-methyl-[1,2,4]triazolo[4,3-a]quinoxaline-4-ylamino]-butyl}-3-methyl-butyramide], in that order: 237 nM, at most 50 nM and 11 nM.
On to `COc1cc2nc(NCCCCNC(=O)CC(C)C)c3nnc(C)n3c2cc1F` [Example 574, N-[4-(8-fluoro-7-methoxy-1-methyl-[1,2,4]triazolo[4,3-a]quinoxaline-4-ylamino)-butyl]-3-methyl-butyramide], for which the IC50 was at most 200 nM in experiment [1] (setting [6]), 45 nM in experiment [1] (setting [3]), at most 50 nM in experiment [2] (setting [4]) and 40 nM in experiment [2] (setting [5]).
As to `COc1cc2c(cc1F)nc(NCCCCNC(=O)CC(C)C)c1nnc(C)n12` [Example 575, N-[4-(7-fluoro-8-methoxy-1-methyl-[1,2,4]triazolo[4,3-a]quinoxaline-4-ylamino)-butyl]-3-methyl-butyramide], the IC50 in experiment [1] (setting [3]) was 337 nM; in experiment [2] (setting [5]), 51 nM.
As to `COc1cc2nc(NCCCCNC(=O)CC(C)C)c3nnc(C)n3c2cc1OCCN1CCOCC1` [Example 576, N-{4-[7-methoxy-1-methyl-8-(2-morpholine-4-yl-ethoxy)-[1,2,4]triazolo[4,3-a]quinoxaline-4-ylamino]-butyl}-3-methyl butyramide], the half-maximal inhibitory concentration (IC50) in experiment [1] (setting [6]) was at most 200 nM; in experiment [1] (setting [3]), 86 nM; in experiment [2] (setting [5]), 52 nM.
On to `Cc1noc(C)c1-c1ccc2c(c1)nc(NCCCCNC(=O)CC(C)C)c1nnc(C)n12` [Example 585, N-{4-[7-(3,5-dimethyl-isoxazol-4-yl)-1-methyl-[1,2,4]triazolo[4,3-a]quinoxaline-4-ylamino]-butyl}-3-methyl-butyramide], for which the half-inhibitory concentration (IC50) in experiment [1] (setting [3]) is 280 nM; in experiment [2] (setting [4]), at most 10 nM; in experiment [2] (setting [5]), 5 nM.
On the same counts, the results for `COc1ccc2c(c1)nc(NCCCCNC(=O)CC(C)C)c1nnc(C(F)(F)F)n12` [Example 590, N-[4-(7-methoxy-1-trifluoromethyl-[1,2,4]triazolo[4,3-a]quinoxaline-4-ylamino)-butyl]-3-methyl-butyramide] are 490 nM, at most 50 nM and 29 nM.
